Test results from patent publication US20210395226A1, “SUBSTITUTED ARYL COMPOUND AND PREPARATION METHOD THEREFOR AND USE THEREOF” (SICHUAN KELUN-BIOTECH BIOPHARMACEUTICAL CO., LTD., priority 2018, published 2021).
Read-outs that look alike come from different tables or passages of the source.

Tests used:
[1] = target: T1, Adenosine A1 receptor (human) membrane (Homo sapiens, UniProt P30542); assay: Determination of competitive inhibition constant (Ki) for adenosine A1 receptor, [3H]-DPCPX radioligand; format: binding; settings: 1.0 nM [3H]-DPCPX
T1 construct: purchased PerkinElmer ES-010-M400UA
T1 sequence (P30542 1-326): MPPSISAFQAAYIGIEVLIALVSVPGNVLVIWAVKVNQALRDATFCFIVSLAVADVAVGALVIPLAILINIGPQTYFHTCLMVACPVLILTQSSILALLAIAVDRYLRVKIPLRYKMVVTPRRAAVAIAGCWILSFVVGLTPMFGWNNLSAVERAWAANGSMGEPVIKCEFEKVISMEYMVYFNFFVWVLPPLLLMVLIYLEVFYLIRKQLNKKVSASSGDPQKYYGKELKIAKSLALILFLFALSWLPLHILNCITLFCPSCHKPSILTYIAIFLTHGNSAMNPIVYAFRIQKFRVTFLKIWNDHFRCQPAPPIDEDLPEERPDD
Description: (§1) Test Example 1: Determination of Competitive Inhibition Constant (Ki) for Adenosine A1 and A2a Receptors
[^3H]-DPCPX (PerkinElmer, NET974250UC),
Adenosine A1 receptor (human) membrane (PerkinElmer, ES-010-M400UA),
assay buffer for A1 (25 mM HEPES, 5 mM MgCl2, 1 mM CaCl2, 100 mM NaCl, pH7.4), used to dilute adenosine A1 receptor (human) membrane and [^3H]-DPCPX;
wash buffer for A1 (25 mM HEPES, 5 mM MgCl2, 1 mM CaCl2, 100 mM NaCl, pH7.4);
(§2) Adenosine A1 receptor membrane was diluted to 0.025 μg/μl with assay buffer for A1, and Adenosine A2a receptor membrane was diluted to 0.05 μg/μl with assay buffer for A2a, so as to obtain Adenosine A1 receptor membrane dilution and Adenosine A2a receptor membrane dilution.
(§3) The compound to be tested and CGS-15943 were diluted with DMSO, and 1 W of the compound to be tested, high value control (0.5% DMSO), low value control (1000 nM CGS-15943) were added to a 96-well plate, and 100 W of Adenosine A1 receptor membrane dilution (containing 2.5 μg of membrane) was added to each well of the 96-well plate to obtain A1 detection plate; following the same steps, 100 W of Adenosine A2a receptor membrane dilution (containing 5.0 μg membrane) was added to each well of the 96-well plate to obtain A2a detection plate.
(§4) To the A1 detection plate, 100 μl of radioisotope-labeled ligand [^3H]-DPCPX (diluted with assay buffer for A1, working concentration of which was 1.0 nM) was added; and to the A2a detection plate, 100 μl of radioisotope-labeled ligand [^3H]-CGS-21680 (diluted with assay buffer for A2a, working concentration of which was 6.0 nM) was added. The A1 and A2a detection plates were sealed with tape, and incubated at room temperature for 1 h and 2 h, respectively.
(§5) Unifilter-96 GF/C filter plates were prepared, 50 μl of 0.3% PEI was added to each well of the Unifilter-96 GF/C filter plates, and the resulting filter plates were incubated at room temperature for not less than 0.5 h.
(§6) After the incubation was completed, the reaction solution was transferred from the A1 detection plate and the A2a detection plate to two Unifilter-96 GF/C filter plates, and washed with pre-cooled wash buffer for A1 and wash buffer for A2a, and then the filter plates were dried, sealed at bottom, then 50 W of Microscint 20 fluid scintillation cocktail was added, and then the filter plates were sealed at top, and counted by MicroBeta2 Reader.
(§7) Inhibition rate %=100−(signal value of test well−signal average value of low value control)/(signal average value of high value control−signal average value of low value control)*100.
(§8) EXCEL XLfit was used to fit IC50.
(§9) The calculation formula for competitive inhibition constant (Ki) was: Ki=IC50/(1+concentration of isotope-labeled ligand/Kd), wherein Kd was the dissociation constant of the isotope-labeled ligand.

[2] = Pharmacokinetics (PK) and distribution in brain tissue in rats; format: in vivo, male SD rats
Description: Test Example 3: Study on Pharmacokinetics (PK) and Distribution in Brain Tissue in Rats
The compounds of the present application were administered to male SD rats by intravenous (IV) and intragastric (PO) respectively to investigate the pharmacokinetic characteristics. The dosages of IV and PO were 1 mg/kg and 5 mg/kg, respectively. The solvent for IV was a mixture of 5% DMSO, 5% Solutol (polyethylene glycol 15-hydroxystearate) and 90% saline, and the solvent for PO was 0.5% MC (methyl cellulose sodium). Before IV administration (0 h) and at 0.083 h, 0.25 h, 0.5 h, 1 h, 2 h, 4 h, 6 h, 8 h and 24 h time points after administration, blood samples were collected; before PO administration (0 h) and at 0.25 h, 0.5 h, 1 h, 2 h, 4 h, 6 h, 8 h and 24 h time points after administration, blood samples were collected; the blood samples were anticoagulated with EDTA.K2, and centrifuged to obtain plasma samples. For Compound 11, brain tissue samples were taken and homogenized at 0.25 h, 0.5 h, 1 h, 4 h and 8 h; for Compounds 19 and 32, and brain tissue samples were taken and homogenized at 0.25 h, 0.5 h, 1 h and 8 h (three SD rats were selected for the experiment of distribution in brain tissue at each time point), and the resulting brain tissue homogenate samples were stored at −80° C. The plasma samples and brain tissue homogenate samples were subjected to precipitation of protein, and then LC-MS/MS analysis was performed.
Pharmacokinetic parameters were calculated by means of non-compartmental model by using WinNonlin 6.3 software.

[3] = target: T2, Adenosine A2a receptor (human) membrane (Homo sapiens, UniProt P29274); assay: Determination of competitive inhibition constant (Ki) for adenosine A2a receptor, [3H]-CGS-21680 radioligand; format: binding; settings: for Ki(A1)/Ki(A2a): selectivity ratio A1 over A2a
T2 construct: purchased PerkinElmer RBHA2AM400UA
T2 sequence (P29274 whole entry): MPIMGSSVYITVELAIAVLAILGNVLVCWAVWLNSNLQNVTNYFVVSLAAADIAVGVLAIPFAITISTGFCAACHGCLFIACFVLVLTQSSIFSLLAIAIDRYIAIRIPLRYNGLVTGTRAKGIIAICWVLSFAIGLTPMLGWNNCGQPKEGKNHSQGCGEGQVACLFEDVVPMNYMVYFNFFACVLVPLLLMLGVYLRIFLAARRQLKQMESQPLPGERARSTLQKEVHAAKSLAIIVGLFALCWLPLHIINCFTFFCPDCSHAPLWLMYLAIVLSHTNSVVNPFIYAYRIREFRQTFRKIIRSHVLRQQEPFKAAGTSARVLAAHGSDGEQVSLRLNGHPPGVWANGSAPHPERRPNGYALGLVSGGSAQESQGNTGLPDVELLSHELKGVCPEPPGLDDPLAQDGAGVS
Description: as §1
Adenosine A2a receptor (human) membrane (PerkinElmer, RBHA2AM400UA),
assay buffer for A2a (50 mM Tris-HCl, 10 mM MgCl2, 1 mM EDTA, pH7.4), used to dilute adenosine A2a receptor (human) membrane (human origin) and [^3H]-CGS-21680; and
wash buffer for A2a (50 mM Tris-HCl, 154 mM NaCl, pH7.4).
as §2, §3, §4, §5, §6, §7, §8, §9

[4] = human A2a receptor membrane, 6.0 nM [3H]-CGS-21680, read-out: Ki(A2a)

Ki [1] [nM]	Ki [3, 4] [nM]	Ki(A1)/Ki(A2a) [3]	Compound	other results
333	2.3	144.6	Cc1ncnc2ccc(-c3c(Cl)cc(NC(=O)N4CCOCC4)nc3-c3ccc(F)cc3)cc12 [Compound 42, N-(4-chloro-6-(4-fluorophenyl)-5-(4-methylquinazolin-6-yl)pyridin-2-yl) morpholine-4-carboxamide]	–
> 7920	15.6	>507.5	CNC(=O)Nc1ncc(-c2ccc3ncnc(C)c3c2)c(-c2ccc(F)cc2)n1 [Compound 5, 1-(4-(4-fluorophenyl)-5-(4-methylquinazolin-6-yl)pyrimidin-2-yl)-3-methylurea]	–
1590	21.2	75.0	Cc1ncnc2ccc(-c3cnc(NC(=O)N4CCN(C)CC4)nc3-c3ccc(F)cc3)cc12 [Compound 30, N-(4-(4-fluorophenyl)-5-(4-methylquinazolin-6-yl)pyrimidin-2-yl)-4-methylpiperazine-1-carboxamide]	–
690	4.7	146.8	Cc1ncnc2ccc(-c3cnc(NC(=O)N4CCC(C#N)CC4)nc3-c3ccc(F)cc3)cc12 [Compound 10, 4-cyano-N-(4-(4-fluorophenyl)-5-(4-methylquinazolin-6-yl)pyrimidin-2-yl) piperidine-1-carboxamide]	–
583	10.6	55.0	Cc1cc(-c2cnc(NC(=O)N3CCO[C@@H](C)C3)nc2-c2ccc(F)cc2)cc(Cl)n1 [Compound 36, (S)-N-(5-(2-chloro-6-methylpyridin-4-yl)-4-(4-fluorophenyl)pyrimidin-2-yl)-2-methylmorpholine-4-carboxamide]	–
698	2.7	258.6	Cc1ncnc2ccc(-c3cc(F)c(N)nc3-c3ccc(F)cc3)cc12 [Compound 2, 3-fluoro-6-(4-fluorophenyl)-5-(4-methylquinazolin-6-yl)pyridin-2-amine]	–
4050	23.3	173.7	Cc1cc(-c2cnc(NC(=O)N3C[C@@H](C)O[C@@H](C)C3)nc2-c2ccc(F)cc2)cc(Cl)n1 [Compound 37, (2R,6S)-N-(5-(2-chloro-6-methylpyridin-4-yl)-4-(4-fluorophenyl)pyrimidin-2-yl)-2,6-dimethylmorpholine-4-carboxamide]	–
4670	7.3	639.1	Cc1cc(Cl)cc(-c2cnc(NC(=O)N3CCC(N4CCCCC4)CC3)nc2-c2ccc(F)cc2)c1 [Compound 21, N-(5-(3-chloro-5-methylphenyl)-4-(4-fluorophenyl)pyrimidin-2-yl)-[1,4′-dipiperidine]-1′-carboxamide]	–
422	4	105.5	Cc1ccc(-c2nc(NC(=O)N3CCC(N4CCCCC4)CC3)nnc2-c2ccc3ncnc(C)c3c2)o1 [Compound 27, N-(5-(5-methylfuran-2-yl)-6-(4-methylquinazolin-6-yl)-1,2,4-triazin-3-yl)-[1,4′-bipiperidine]-1′-carboxamide]	–
411	5.4	76.2	Cc1ncnc2ccc(-c3cnc(NC(=O)N4CCO[C@H](C)C4)nc3-c3ccc(F)cc3)cc12 [Compound 40, (R)-N-(4-(4-fluorophenyl)-5-(4-methylquinazolin-6-yl)pyrimidin-2-yl)-2-methylmorpholine-4-carboxamide]	–
1370	11.8	115.3	Cc1cc(-c2c(C#N)cc(NC(=O)N3CCOCC3)nc2-c2ccc(F)cc2)cc(Cl)n1 [Compound 45, N-(2′-chloro-4-cyano-2-(4-fluorophenyl)-6′-methyl-[3,4′-bipyridyl]-6-yl) morpholine-4-carboxamide]	–
7770	21.5	361.6	CN(Cc1ccccn1)C(=O)Nc1ncc(-c2cc(Cl)nc(C(F)(F)F)c2)c(-c2ccc(F)cc2)n1 [Compound 16, 3-(5-(2-chloro-6-(trifluoromethyl)pyridin-4-yl)-4-(4-fluorophenyl)pyrimidin-2-yl)-1-methyl-1-(pyridin-2-ylmethyl)urea]	–

Compound	Ki [1] [nM]	Ki [3, 4] [nM]	Ki(A1)/Ki(A2a) [3]	other results
Cc1ncnc2ccc(-c3cc(F)c(NC(=O)N4CCOCC4)nc3-c3ccc(F)cc3)cc12 [Compound 32, N-(3-fluoro-6-(4-fluorophenyl)-5-(4-methylquinazolin-6-yl)pyridin-2-yl) morpholine-4-carboxamide]	534	9.5	56.2	bioavailability ([2]; male, SD, plasma, rat, oral 5 mg/kg compared with intravenous 1 mg/kg): 80.2%; Cmax ([2]; male, SD, rat plasma, IV, 1 mg/kg): 1480 ng/mL; AUC(0-t) ([2]; male, SD, rat plasma, IV, 1 mg/kg, read-out: AUClast): 1820 ng·h/mL; AUC(0-t) ([2]; male, SD, rat plasma, PO, 5 mg/kg, read-out: AUClast (plasma)): 7310 ng·h/mL; AUClast (brain) ([2]; rat brain tissue, PO, 5 mg/kg): 52.9 ng·h/g; Plasma AUClast/brain AUClast ([2]; rat, PO, 5 mg/kg): 138/1
Cc1ccc(-c2nc(NC(=O)N(C)Cc3ccccn3)nnc2-c2ccc3ncnc(C)c3c2)o1 [Compound 25, 1-methyl-3-(5-(5-methylfuran-2-yl)-6-(4-methylquinazolin-6-yl)-1,2,4-triazin-3-yl)-1-(pyridin-2-yl-methyl)urea]	178	–	45.7	Ki [3]: 3.9 nM
Cc1ncnc2ccc(-c3ccc(NC(=O)N4CCOCC4)nc3-c3ccc(F)cc3)cc12 [Compound 41, N-(6-(4-fluorophenyl)-5-(4-methylquinazolin-6-yl)pyridin-2-yl)morpholine-4-carboxamide]	2530	1.92	1319.0	–
